# From ChEMBL document CHEMBL3797190, “Development of 3,5-Dinitrobenzylsulfanyl-1,3,4-oxadiazoles and Thiadiazoles as Selective Antitubercular Agents Active Against Replicating and Nonreplicating Mycobacterium tuberculosis” (J Med Chem, 2016)
# Calls of active or inactive are those of the source. The calls are words filed in the database; no cut-off is given here.
# Tests used:
# [1] = Cytotoxicity against human HuH7 cells assessed as cell viability at 20 uM after 24 hrs by MTS assay; assay type: cell-based, Huh-7; conditions: read-out: Activity
# Hepatocyte = test: Cytotoxicity against primary human hepatocytes assessed as cell viability after 48 hrs by MTS assay; assay type: cell-based
# Nakaseomyces glabratus = test: Antifungal activity against Candida glabrata 20/I after 24 to 48 hrs by broth microdilution method; assay type: functional
# [2] = Cytotoxicity against human HuH7 cells assessed as cell viability after 48 hrs by MTS assay; assay type: cell-based; conditions: Huh-7, 48 h
# [3] = system: Mycobacterium tuberculosis; test: Inhibition of proteosynthesis in Mycobacterium tuberculosis H37Ra assessed as reduction of [14C]-methionine incorporation at 1 ug/ml preincubated for 1 hr followed by radiolabeling with [14C]-methionine for 24 hrs by scintillation spectrometry; assay type: functional
# Staphylococcus aureus = test: Antibacterial activity against methicillin-resistant Staphylococcus aureus H 5996/08 after 24 to 48 hrs by broth microdilution method; assay type: functional
# [4] = system: Mycobacterium tuberculosis H37Ra; test: Inhibition of DprE1 in Mycobacterium tuberculosis H37Ra assessed as accumulation of trehalose dimycolate at 0.2 ug/ml preincubated for 24 hrs followed by radiolabeling with [14C]-acetate for 24 hrs by TLC/autoradiographic method
# [5] = Chemical stability of compound in DMSO at 100 uM after 1 month by HPLC analysis; assay type: physicochemical; conditions: 730.5 h
# Mycobacterium kansasii = test: Antimycobacterial activity against Mycobacterium kansasii CNCTC My 235/80 after 14 days by microdilution method; assay type: functional; conditions: CNCTC My 235/80, 336 h
# [6] = system: Mycobacterium tuberculosis; test: Antimycobacterial activity against Mycobacterium tuberculosis H37Ra assessed as growth inhibition at 0.5 ug/ml preincubated for 24 hrs followed by radiolabeling with [14C]-acetate for 24 hrs; assay type: functional; conditions: read-out: GI
# [7] = system: Staphylococcus epidermidis; test: Antibacterial activity against Staphylococcus epidermidis H 6966/08 after 24 to 48 hrs by broth microdilution method; assay type: functional
# [8] = system: Mycobacterium tuberculosis H37Ra; test: Inhibition of DprE1 in Mycobacterium tuberculosis H37Ra assessed as accumulation of trehalose dimycolate at 0.5 ug/ml preincubated for 24 hrs followed by radiolabeling with [14C]-acetate for 24 hrs by TLC/autoradiographic method
# [9] = system: Mycobacterium tuberculosis; test: Inhibition of RNA biosynthesis in Mycobacterium tuberculosis H37Ra assessed as reduction of [14C]-uracil incorporation at 1 ug/ml preincubated for 1 hr followed by radiolabeling with [14C]-uracil for 24 hrs by scintillation spectrometry; assay type: functional
# Mycobacterium avium = test: Antimycobacterial activity against Mycobacterium avium CNCTC My 330/88 after 14 days by microdilution method; assay type: functional; conditions: CNCTC My 330/88, 336 h
# PBL [10] = test: Genotoxicity in human PBL at 0.6 to 12 mM by chromosome aberration test in absence of metabolic activation; assay type: toxicity, cell-based; conditions: 12000 µM
# PBL [11] = test: Genotoxicity in human PBL at 0.6 to 12 mM by micronucleus test in absence of metabolic activation; assay type: toxicity, cell-based; conditions: 12000 µM
# [12] = Cytotoxicity against MDCK2-MDR1 cells assessed as cell viability after 48 hrs by MTS assay; assay type: ADME, cell-based; conditions: Canis lupus familiaris, MDCK-II
# PBL [13] = test: Genotoxicity in human PBL at 0.6 to 12 mM by chromosome aberration test in presence of metabolic activation; assay type: toxicity, cell-based; conditions: 12000 µM
# [14] = Chemical stability of compound in DMSO under open-vessel condition at 4 mg/ml at 60 degC after 3 days by 1H-NMR analysis; assay type: physicochemical; conditions: 72 h
# PBL [15] = test: Genotoxicity in human PBL at 0.6 to 12 mM by micronucleus test in presence of metabolic activation; assay type: toxicity, cell-based; conditions: 12000 µM
Structure (SMILES),"viability at 24 h, 20 µM [1] [%]",IC50 (Hepatocyte) [µM],MIC80 (Nakaseomyces glabratus) [µM],IC50 [2] [µM],inhibition at 1 µg/mL [3] [%],MIC95 (Staphylococcus aureus) [µM],inhibition [4],Stability [5],MIC99 (Mycobacterium kansasii) [µM],inhibition of growth at 0.5 µg/mL [6] [%],MIC95 [7] [µM],inhibition [8],inhibition at 1 µg/mL [9] [%],MIC99 (Mycobacterium avium) [µM],Activity (PBL [10]),Activity (PBL [11]),IC50 [12] [µM],Activity (PBL [13]),Stability [14],Activity (PBL [15])
Cc1ccc(-c2nnc(SCc3cc([N+](=O)[O-])cc([N+](=O)[O-])c3)o2)cc1,101,> 20,> 125,> 20,37,> 125,inactive,Stable,0.06,36,> 125,inactive,50,8,,,,,,
O=[N+]([O-])c1cc(CSc2nnc(-c3ccc(Cl)cc3)s2)cc([N+](=O)[O-])c1,94,> 20,> 125,,20,> 125,inactive,Stable,0.5,12,> 125,inactive,13,8,Non-toxic,Non-toxic,> 20,Non-toxic,Stable,Non-toxic
